Where two headings read alike, the source gives them in different places.
Assay: Pharmacokinetics of ZA in pig serum after IV or SC infusion with or without rHuPH20 (LC-MS-MS, non-compartmental analysis)
Assay type: in vivo
Settings: female, Yorkshire, pig, serum, […]
Description: A pharmacokinetic study of zoledronic acid (ZA) co-administered with rHuPH20 in female Yorkshire swines was conducted. The primary objective of the study was to determine the bioavailability of zoledronic acid dosed via subcutaneous (SC) co-administration with human recombinant hyaluronidase PH20 (rHuPH20) and to compare the overall exposure to an equivalent IV dose.
Animals in Study Group 1 were dosed with 0.15 mg/kg ZA given via a 20-minute IV infusion. Animals in Study Groups 2 and 3 were dosed subcutaneously (SC) with 0.15 mg/kg ZA without and with rHuPH20, respectively, in different SC delivery volumes.
Following ZA dose administration, serial blood samples were collected via vascular access ports (VAPs) for serum preparation and determination of ZA concentrations. Blood collection times were at 1, 3, 5, 10, 15, 20, 30, 45, and 60 minutes, and at 1.5, 2, 3, 4, 6, 8, 10, 24, 48, and 72 hours post dose. Urine samples were also collected to compare excretion characteristics between IV and SC routes of administration. Collection times for urine were at 15 minutes before dosing (−15 min.), continuously from dose initiation to 2 hours post dose, and at 4, 6, 8, and 24 hours post dose thereafter.
Serum concentration of ZA was determined using a qualified LC-MS-MS assay after derivatization with diazomethane (Zhu, L S et al. (2006) Rapid Commun. Mass Spectrom. 20: 3421-3426; “Qualification Data of An LC-MS/MS Method for the Determination of Zoledronate in Porcine Serum”, MDS Pharma Services Study No. AA43671-01, Report Date 14 Sep. 2007). The assay range was from 2.0 to 400 ng/mL with a lower limit of quantitation (LLOQ) at 2.0 ng/mL. Urine concentration of ZA was determined by a similar well qualified LC-MS-MS method (“Qualification Data of An LC-MS/MS Method for the Determination of Zoledronate in Porcine Urine”, MDS Pharma Services Study No. AA43671-02, Report Date 14 Sep. 2007) with an assay LLOQ at 10 ng/mL.
Pharmacokinetic (PK) analyses of ZA serum concentration versus time data were conducted using WinNonlin v5.1 (Pharsight, Mountain View, Calif.). Non-compartmental analysis was used for derivation of primary and secondary pharmacokinetic (PK) parameters. AUC, Cmax, and Tmax were compared between dose routes, between co-administration with rHuPH20, and with dose of rHuPH20.

[1] = intravenous, animal ID 61, Study Group 1, IV 20 min infusion, ZA […], rHuPH20 0 U/mL, read-out: Zoledronic Acid Serum Concentration
[2] = intravenous, animal ID 67, Study Group 1, IV 20 min infusion, ZA […], rHuPH20 0 U/mL, read-out: Zoledronic Acid Serum Concentration

Compound: O=P(O)(O)C(O)(Cn1ccnc1)P(=O)(O)O [ZA, 1-hydroxy-2-(1H-imidazol-1-yl)ethylidene-1,1-bisphosphonic acid]
- concentration at 2 h [1]: 18.8 ng/mL
- concentration at 3 h [1]: 6.1 ng/mL
- concentration at 4 h [1]: 3.3 ng/mL
- concentration at 0.05 h (intravenous, animal ID 67, Study Group 1, IV 20 min infusion, ZA […], rHuPH20 0 U/mL, time 0.05 h, read-out: Zoledronic Acid Serum Concentration): 288 ng/mL
- concentration at 0.333 h (intravenous, animal ID 67, Study Group 1, IV 20 min infusion, ZA […], rHuPH20 0 U/mL, time 0.333 h, read-out: Zoledronic Acid Serum Concentration): 556 ng/mL
- concentration at 0.5 h (intravenous, animal ID 67, Study Group 1, IV 20 min infusion, ZA […], rHuPH20 0 U/mL, time 0.5 h, read-out: Zoledronic Acid Serum Concentration): 246 ng/mL
- concentration at 1 h (intravenous, animal ID 67, Study Group 1, IV 20 min infusion, ZA […], rHuPH20 0 U/mL, time 1 h, read-out: Zoledronic Acid Serum Concentration): 77.8 ng/mL
- concentration at 2 h [2]: 16.6 ng/mL
- concentration at 3 h [2]: 6.67 ng/mL
- concentration at 4 h [2]: 3.35 ng/mL
- clearance (iv, absolute clearance by non-compartmental analysis of the IV dose (from Table 13), used for Study Groups 2 and 3, read-out: Serum CL (converted)): 7.34 mL/min/kg
- clearance (iv, ZA […] 20-min IV infusion, individual pigs 57, 61, 67, read-out: CL (converted)): 6.76 mL/min/kg
- Tmax (iv, ZA […] 20-min IV infusion, individual pigs 57, 61, 67, read-out: Tmax): 15 min
- half-life (iv, ZA […] 20-min IV infusion, individual pigs 57, 61, 67, read-out: T½ λz (converted)): 37.8 min
- Vd (iv, ZA […] 20-min IV infusion, individual pigs 57, 61, 67, read-out: Vss): 0.104 L/kg
- Vd (iv, ZA […] 20-min IV infusion, individual pigs 57, 61, 67, read-out: Vz): 0.371 L/kg
- clearance (iv, ZA […] 20-min IV infusion, n=3, read-out: CL, mean (converted)): 7.34 mL/min/kg
- clearance (iv, ZA […] 20-min IV infusion, n=3, read-out: CL, median (converted)): 7.36 mL/min/kg
- Tmax (iv, ZA […] 20-min IV infusion, n=3, read-out: Tmax, mean): 15 min
- Tmax (iv, ZA […] 20-min IV infusion, n=3, read-out: Tmax, median): 15 min
- half-life (iv, ZA […] 20-min IV infusion, n=3, read-out: T½ λz, mean (converted)): 43.2 ± 4.8 min
- half-life (iv, ZA […] 20-min IV infusion, n=3, read-out: T½ λz, median (converted)): 44.4 min
- Vd (iv, ZA […] 20-min IV infusion, n=3, read-out: Vss, mean): 0.123 L/kg
- Vd (iv, ZA […] 20-min IV infusion, n=3, read-out: Vss, median): 0.131 L/kg
- Vd (iv, ZA […] 20-min IV infusion, n=3, read-out: Vz, mean): 0.458 ± 0.0759 L/kg
- Vd (iv, ZA […] 20-min IV infusion, n=3, read-out: Vz, median): 0.498 L/kg
- CL/F (sc, pig 59, SC ZA […], 100 mL over 16 min, no rHuPH20, read-out: CL/F (converted)): 7.97 mL/min/kg
- Tmax (sc, pig 59, SC ZA […], 100 mL over 16 min, no rHuPH20, read-out: Tmax): 20 min
- half-life (sc, pig 59, SC ZA […], 100 mL over 16 min, no rHuPH20, read-out: T½ λz (converted)): 66 min
- Vd/F (sc, pig 59, SC ZA […], 100 mL over 16 min, no rHuPH20, read-out: Vss/F): 0.617 L/kg
- Vd/F (sc, pig 59, SC ZA […], 100 mL over 16 min, no rHuPH20, read-out: Vz/F): 0.76 L/kg
- CL/F (sc, pig 60, SC ZA […], 100 mL over 16 min, no rHuPH20, read-out: CL/F (converted)): 6.97 mL/min/kg
- bioavailability (sc, pig 60, SC ZA […], 100 mL over 16 min, no rHuPH20, read-out: SC Bioavailability (0-1 h)): 55.5%
- bioavailability (sc, pig 60, SC ZA […], 100 mL over 16 min, no rHuPH20, read-out: SC Bioavailability (0-8 h)): 105%
- Tmax (sc, pig 60, SC ZA […], 100 mL over 16 min, no rHuPH20, read-out: Tmax): 20 min
- half-life (sc, pig 60, SC ZA […], 100 mL over 16 min, no rHuPH20, read-out: T½ λz (converted)): 52.2 min
- Vd/F (sc, pig 60, SC ZA […], 100 mL over 16 min, no rHuPH20, read-out: Vss/F): 0.526 L/kg
- Vd/F (sc, pig 60, SC ZA […], 100 mL over 16 min, no rHuPH20, read-out: Vz/F): 0.524 L/kg
- CL/F (sc, pig 62, SC ZA […], 50 mL over 8 min, no rHuPH20, read-out: CL/F (converted)): 10.2 mL/min/kg
- bioavailability (sc, pig 62, SC ZA […], 50 mL over 8 min, no rHuPH20, read-out: SC Bioavailability (0-1 h)): 54%
- bioavailability (sc, pig 62, SC ZA […], 50 mL over 8 min, no rHuPH20, read-out: SC Bioavailability (0-8 h)): 71.9%
- Tmax (sc, pig 62, SC ZA […], 50 mL over 8 min, no rHuPH20, read-out: Tmax): 10 min
- half-life (sc, pig 62, SC ZA […], 50 mL over 8 min, no rHuPH20, read-out: T½ λz (converted)): 58.2 min
- Vd/F (sc, pig 62, SC ZA […], 50 mL over 8 min, no rHuPH20, read-out: Vss/F): 0.634 L/kg
- Vd/F (sc, pig 62, SC ZA […], 50 mL over 8 min, no rHuPH20, read-out: Vz/F): 0.852 L/kg
- CL/F (sc, pig 69, SC ZA […], 25 mL over 4 min, no rHuPH20, read-out: CL/F (converted)): 9.28 mL/min/kg
- bioavailability (sc, pig 69, SC ZA […], 25 mL over 4 min, no rHuPH20, read-out: SC Bioavailability (0-1 h)): 56.9%
- bioavailability (sc, pig 69, SC ZA […], 25 mL over 4 min, no rHuPH20, read-out: SC Bioavailability (0-8 h)): 78.8%
- Tmax (sc, pig 69, SC ZA […], 25 mL over 4 min, no rHuPH20, read-out: Tmax): 10 min
- half-life (sc, pig 69, SC ZA […], 25 mL over 4 min, no rHuPH20, read-out: T½ λz (converted)): 60.6 min
- Vd/F (sc, pig 69, SC ZA […], 25 mL over 4 min, no rHuPH20, read-out: Vss/F): 0.652 L/kg
- Vd/F (sc, pig 69, SC ZA […], 25 mL over 4 min, no rHuPH20, read-out: Vz/F): 0.811 L/kg
- CL/F (sc, pig 70, SC ZA […], 10 mL over 1.6 min, no rHuPH20, read-out: CL/F (converted)): 7.69 mL/min/kg
- bioavailability (sc, pig 70, SC ZA […], 10 mL over 1.6 min, no rHuPH20, read-out: SC Bioavailability (0-1 h)): 66.5%
- bioavailability (sc, pig 70, SC ZA […], 10 mL over 1.6 min, no rHuPH20, read-out: SC Bioavailability (0-8 h)): 95.1%
- Tmax (sc, pig 70, SC ZA […], 10 mL over 1.6 min, no rHuPH20, read-out: Tmax): 10 min
- half-life (sc, pig 70, SC ZA […], 10 mL over 1.6 min, no rHuPH20, read-out: T½ λz (converted)): 85.2 min
- Vd/F (sc, pig 70, SC ZA […], 10 mL over 1.6 min, no rHuPH20, read-out: Vss/F): 0.615 L/kg
- Vd/F (sc, pig 70, SC ZA […], 10 mL over 1.6 min, no rHuPH20, read-out: Vz/F): 0.947 L/kg
- CL/F (sc, SC ZA […], no rHuPH20 (Study Group 2), n=4, read-out: CL/F, mean (converted)): 8.52 mL/min/kg
- CL/F (sc, SC ZA […], no rHuPH20 (Study Group 2), n=4, read-out: CL/F, median (converted)): 8.48 mL/min/kg
- bioavailability (sc, SC ZA […], no rHuPH20 (Study Group 2), n=4, read-out: SC Bioavailability (0-1 h), mean): 58.2%
- bioavailability (sc, SC ZA […], no rHuPH20 (Study Group 2), n=4, read-out: SC Bioavailability (0-1 h), median): 56.2%

Reference: US20090311237A1, “Combination therapy using a soluble hyaluronidase and a bisphosphonate” (priority 2008, published 2009)
